Experiments:
[1] = test system: common ragweed; assay: Test C pre-/postemergence herbicide test; format: in vivo, Ambrosia elatior; parameters: key to Plant response rating, Ragweed: 0 = no effect, 100 = complete control; details: for Plant response rating, Ragweed: preemergence
Outline: (§1)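 Pre/post spray; non-phytotoxic solvent + surfactant. Post-timing 1–4 leaves, 2–18 cm. Read-out: visual % control vs untreated, day 12–14, greenhouse.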

[2] = test system: common (oilseed) sunflower; assay: Test C pre-/postemergence herbicide test; format: in vivo, Helianthus annuus; details: for Plant response rating, Sunflower: preemergence
Outline: as §1

[3] = test system: pigweed; assay: Test C pre-/postemergence herbicide test; format: in vivo, Amaranthus retroflexus; details: for Plant response rating, Pigweed: preemergence
Outline: as §1

[4] = test system: velvetleaf; assay: Test C pre-/postemergence herbicide test; format: in vivo, Abutilon theophrasti; details: for Plant response rating, Velvetleaf: preemergence
Outline: as §1

[5] = test system: barnyardgrass; assay: Test C flooded paddy test; format: in vivo, Echinochloa crus-galli; details: for Plant response rating, Barnyardgrass: 500 g ai/ha, visual rating after 12 to 14 days
Outline: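 Plants were grown to the 1- to 4-leaf stage (2–18 cm) and then treated postemergence, or grown to the 2-leaf stage for the flooded paddy test. They were held in a greenhouse for 12 to 14 days and then scored by eye against controls, where 0 is no effect and 100 is complete control.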

[6] = test system: large crabgrass; assay: Test C pre-/postemergence herbicide test; format: in vivo, Digitaria sanguinalis; details: for Plant response rating, Crabgrass, Large: preemergence
Outline: as §1

[7] = test system: cocklebur; assay: Test C pre-/postemergence herbicide test; format: in vivo, Xanthium strumarium; details: for Plant response rating, Cocklebur: preemergence; for Cocklebur plant response rating: Preemergence, 500 g ai/ha, scale 0 to 100, 0 no effect, 100 complete control
Outline: as §1

[8] = test system: ducksalad; assay: Test C flooded paddy test; format: in vivo, Heteranthera limosa; details: for Plant response rating, Ducksalad: 500 g ai/ha, visual rating after 12 to 14 days
[9] = test system: lambsquarters; assay: Test C pre-/postemergence herbicide test; format: in vivo, Chenopodium album; details: for Plant response rating, Lambsquarters: preemergence
Outline: as §1

[10] = test system: eastern black nightshade; assay: Test C pre-/postemergence herbicide test; format: in vivo, Solanum ptycanthum; details: for Plant response rating, Nightshade: preemergence
Outline: as §1

[11] = test system: smallflower umbrella sedge; assay: Test C flooded paddy test; format: in vivo, Cyperus difformis; details: for Plant response rating, Sedge, Umbrella: 500 g ai/ha, visual rating after 12 to 14 days
[12] = test system: corn; assay: Test C pre-/postemergence herbicide test; format: in vivo, Zea mays; details: for Plant response rating, Corn: preemergence
Outline: as §1

[13] = 125 g ai/ha, scale 0 (no effect) to 100 (complete control), visual, 12 to 14 days
[14] = Preemergence, 500 g ai/ha, scale 0 to 100, 0 no effect, 100 complete control
[15] = 62 g ai/ha, scale 0 to 100 (0 no effect, 100 complete control)
[16] = 250 g ai/ha, scale of 0 to 100, 0 is no effect, 100 is complete control
[17] = scale 0 to 100 (0 no effect, 100 complete control)
[18] = 250 g ai/ha, scale 0 to 100 (0 no effect, 100 complete control), visual, 12 to 14 days
[19] = 125 g ai/ha, scale 0 to 100 (0 no effect, 100 complete control)
[20] = 500 g ai/ha, scale 0 to 100 (0 no effect, 100 complete control), visual, 12 to 14 days

CCn1nc(C(C)(C)C)cc1C(=O)Nc1cccc(C(N)=O)n1 [Compound 162, 6-[[[3-(1,1-dimethylethyl)-1-ethyl-1H-pyrazol-5-yl]carbonyl]amino]-2-pyridinecarboxamide]
Plant response rating, Ragweed ([1]; 62 g ai/ha, scale 0 to 100): 95 | Plant response rating, Ragweed [1, 13]: 95 | Ragweed plant response rating [1, 14]: 100 | Plant response rating, Sunflower ([2]; 62 g ai/ha, scale 0 to 100): 0 | Plant response rating, Sunflower [2, 13]: 15 | Sunflower plant response rating [2, 14]: 90 | Plant response rating, Pigweed ([3]; 62 g ai/ha, scale 0 to 100): 100 | Plant response rating, Pigweed [3, 13]: 100 | Pigweed plant response rating [3, 14]: 100 | Plant response rating, Velvetleaf ([4]; 62 g ai/ha, scale 0 to 100): 70 | Plant response rating, Velvetleaf [4, 13]: 75 | Velvetleaf plant response rating [4, 14]: 100 | Barnyardgrass plant response rating [5, 15]: 45 | Barnyardgrass plant response rating ([5]; 125 g ai/ha, scale of 0 to 100, 0 is no effect, 100 is complete control): 65 | Barnyardgrass plant response rating [5, 16]: 75 | Plant response rating, Barnyardgrass [5, 17]: 90 | Plant response rating, Crabgrass, Large ([6]; 62 g ai/ha, scale 0 to 100): 35 | Plant response rating, Crabgrass, Large [6, 13]: 40 | Plant response rating, Crabgrass, Large [6, 18]: 80 | Crabgrass, Large plant response rating [6, 14]: 100 | Plant response rating, Cocklebur [7, 18]: 65 | Cocklebur plant response rating [7]: 75 | Ducksalad plant response rating [8, 15]: 70 | Ducksalad plant response rating [8, 19]: 85 | Ducksalad plant response rating [8, 16]: 95 | Plant response rating, Ducksalad [8, 17]: 100 | Plant response rating, Lambsquarters ([9]; 62 g ai/ha, scale 0 to 100): 80 | Plant response rating, Lambsquarters [9, 13]: 95 | Lambsquarters plant response rating [9, 14]: 100 | Plant response rating, Nightshade ([10]; 62 g ai/ha, scale 0 to 100): 80 | Plant response rating, Nightshade [10, 13]: 100 | Nightshade plant response rating [10, 14]: 100 | Sedge, Umbrella plant response rating [11, 15]: 70 | Sedge, Umbrella plant response rating [11, 16]: 75 | Plant response rating, Corn ([12]; 62 g ai/ha, scale 0 to 100): 20 | Plant response rating, Corn [12, 13]: 70 | Plant response rating, Corn [12, 18]: 75 | Corn plant response rating [12, 14]: 75

CCc1nn(C(C)(C)C)cc1C(=O)Nc1cc(C(=O)N(C)C)ccn1 [Compound 293]
Plant response rating, Ragweed ([1]; 62 g ai/ha, scale 0 to 100): 85 | Plant response rating, Ragweed ([1]; 250 g ai/ha, scale 0-100): 100 | Plant response rating, Ragweed [1, 20]: 100 | Plant response rating, Sunflower ([2]; 62 g ai/ha, scale 0 to 100): 10 | Plant response rating, Sunflower ([2]; 250 g ai/ha, scale 0-100): 65 | Plant response rating, Pigweed ([3]; 62 g ai/ha, scale 0 to 100): 20 | Plant response rating, Pigweed [3, 13]: 85 | Plant response rating, Pigweed ([3]; 250 g ai/ha, scale 0-100): 95 | Plant response rating, Pigweed [3, 20]: 100 | Plant response rating, Velvetleaf ([4]; 62 g ai/ha, scale 0 to 100): 80 | Plant response rating, Velvetleaf ([4]; 250 g ai/ha, scale 0-100): 100 | Plant response rating, Velvetleaf [4, 20]: 100 | Barnyardgrass plant response rating [5, 15]: 0 | Barnyardgrass plant response rating [5, 19]: 20 | Barnyardgrass plant response rating [5, 16]: 70 | Plant response rating, Barnyardgrass [5, 17]: 80 | Plant response rating, Crabgrass, Large ([6]; 62 g ai/ha, scale 0 to 100): 95 | Plant response rating, Crabgrass, Large [6, 13]: 95 | Plant response rating, Crabgrass, Large ([6]; 250 g ai/ha, scale 0-100): 100 | Plant response rating, Crabgrass, Large [6, 20]: 100 | Plant response rating, Cocklebur ([7]; 62 g ai/ha, scale 0 to 100): 0 | Plant response rating, Cocklebur ([7]; 250 g ai/ha, scale 0-100): 20 | Cocklebur plant response rating [7]: 60 | Ducksalad plant response rating ([8]; 62 g ai/ha, scale 0 to 100): 0 | Ducksalad plant response rating [8, 19]: 65 | Ducksalad plant response rating [8, 16]: 80 | Plant response rating, Ducksalad [8, 17]: 95 | Plant response rating, Lambsquarters ([9]; 62 g ai/ha, scale 0 to 100): 100 | Plant response rating, Lambsquarters [9, 13]: 100 | Plant response rating, Lambsquarters ([9]; 250 g ai/ha, scale 0-100): 100 | Plant response rating, Lambsquarters [9, 20]: 100 | Plant response rating, Nightshade ([10]; 62 g ai/ha, scale 0 to 100): 65 | Plant response rating, Nightshade [10, 13]: 100 | Plant response rating, Nightshade ([10]; 250 g ai/ha, scale 0-100): 100 | Plant response rating, Nightshade [10, 20]: 100 | Sedge, Umbrella plant response rating ([11]; 62 g ai/ha, scale 0 to 100): 20 | Sedge, Umbrella plant response rating [11, 19]: 75 | Sedge, Umbrella plant response rating [11, 16]: 80 | Plant response rating, Sedge, Umbrella [11, 17]: 90 | Plant response rating, Corn [12, 13]: 10 | Plant response rating, Corn ([12]; 250 g ai/ha, scale 0-100): 80 | Plant response rating, Corn [12, 20]: 95

CCn1nc(C(C)(C)C)cc1C(=O)Nc1cc(C(=S)N(C)C)ccc1F [Compound 294]
Plant response rating, Ragweed ([1]; 62 g ai/ha, scale 0 to 100): 100 | Plant response rating, Ragweed ([1]; 250 g ai/ha, scale 0-100): 100 | Plant response rating, Ragweed [1, 20]: 100 | Plant response rating, Sunflower ([2]; 62 g ai/ha, scale 0 to 100): 30 | Plant response rating, Sunflower ([2]; 250 g ai/ha, scale 0-100): 100 | Plant response rating, Sunflower [2, 20]: 100 | Plant response rating, Pigweed ([3]; 62 g ai/ha, scale 0 to 100): 100 | Plant response rating, Pigweed [3, 13]: 100 | Plant response rating, Pigweed ([3]; 250 g ai/ha, scale 0-100): 100 | Plant response rating, Pigweed [3, 20]: 100 | Plant response rating, Velvetleaf ([4]; 62 g ai/ha, scale 0 to 100): 100 | Plant response rating, Velvetleaf ([4]; 250 g ai/ha, scale 0-100): 100 | Plant response rating, Velvetleaf [4, 20]: 100 | Barnyardgrass plant response rating [5, 15]: 75 | Barnyardgrass plant response rating [5, 19]: 90 | Barnyardgrass plant response rating [5, 16]: 95 | Plant response rating, Barnyardgrass [5, 17]: 100 | Plant response rating, Crabgrass, Large ([6]; 62 g ai/ha, scale 0 to 100): 70 | Plant response rating, Crabgrass, Large [6, 13]: 95 | Plant response rating, Crabgrass, Large ([6]; 250 g ai/ha, scale 0-100): 100 | Plant response rating, Crabgrass, Large [6, 20]: 100 | Plant response rating, Cocklebur ([7]; 62 g ai/ha, scale 0 to 100): 30 | Plant response rating, Cocklebur [7, 13]: 40 | Plant response rating, Cocklebur ([7]; 250 g ai/ha, scale 0-100): 80 | Cocklebur plant response rating [7]: 85 | Ducksalad plant response rating ([8]; 62 g ai/ha, scale 0 to 100): 90 | Ducksalad plant response rating [8, 19]: 95 | Ducksalad plant response rating [8, 16]: 95 | Plant response rating, Ducksalad [8, 17]: 95 | Plant response rating, Lambsquarters ([9]; 62 g ai/ha, scale 0 to 100): 100 | Plant response rating, Lambsquarters [9, 13]: 100 | Plant response rating, Lambsquarters ([9]; 250 g ai/ha, scale 0-100): 100 | Plant response rating, Lambsquarters [9, 20]: 100 | Plant response rating, Nightshade ([10]; 62 g ai/ha, scale 0 to 100): 100 | Plant response rating, Nightshade [10, 13]: 100 | Plant response rating, Nightshade ([10]; 250 g ai/ha, scale 0-100): 100 | Plant response rating, Nightshade [10, 20]: 100 | Sedge, Umbrella plant response rating ([11]; 62 g ai/ha, scale 0 to 100): 80 | Sedge, Umbrella plant response rating [11, 19]: 85 | Sedge, Umbrella plant response rating [11, 16]: 90 | Plant response rating, Sedge, Umbrella [11, 17]: 90 | Plant response rating, Corn ([12]; 62 g ai/ha, scale 0 to 100): 55 | Plant response rating, Corn [12, 13]: 60 | Plant response rating, Corn ([12]; 250 g ai/ha, scale 0-100): 60 | Plant response rating, Corn [12, 20]: 80

Source: US20060069132A1, “Azolecarboxamide herbicides” (priority 2004, published 2006)
